Our source for the inhibition and Inhibition in % values is patent publication US9315490B2, “2,5-substituted pyrimidines” (Grünenthal GmbH, priority 2014, dated 2016).

T1 sequence (Q07343 whole entry): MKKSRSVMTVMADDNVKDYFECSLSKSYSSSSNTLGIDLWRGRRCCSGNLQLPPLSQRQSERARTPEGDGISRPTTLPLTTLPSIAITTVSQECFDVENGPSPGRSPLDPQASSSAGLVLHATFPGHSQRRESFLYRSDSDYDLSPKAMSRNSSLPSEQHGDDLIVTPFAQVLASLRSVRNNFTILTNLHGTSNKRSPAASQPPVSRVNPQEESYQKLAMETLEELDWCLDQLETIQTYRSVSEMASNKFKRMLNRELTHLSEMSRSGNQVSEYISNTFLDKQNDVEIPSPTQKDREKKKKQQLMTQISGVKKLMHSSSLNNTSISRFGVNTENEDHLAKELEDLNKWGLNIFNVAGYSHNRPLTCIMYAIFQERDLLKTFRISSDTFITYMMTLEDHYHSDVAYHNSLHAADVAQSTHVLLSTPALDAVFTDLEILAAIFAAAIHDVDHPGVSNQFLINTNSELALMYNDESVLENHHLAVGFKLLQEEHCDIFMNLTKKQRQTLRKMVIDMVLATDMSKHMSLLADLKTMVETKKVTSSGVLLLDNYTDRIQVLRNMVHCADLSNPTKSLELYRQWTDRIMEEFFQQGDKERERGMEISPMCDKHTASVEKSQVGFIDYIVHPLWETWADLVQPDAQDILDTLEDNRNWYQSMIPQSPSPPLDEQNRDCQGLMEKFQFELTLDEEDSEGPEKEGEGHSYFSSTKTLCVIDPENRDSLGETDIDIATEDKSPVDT

One experiment concerns the target T1, human PDE4B1 (Homo sapiens, UniProt Q07343).
T1 construct: host or cells: Sf9 cells
Briefly: cAMP HTRF assay to determine the activity of hPDE4B1. Conditions: inhibition of PDE4B at a test concentration of 1 μM. The class given is biochemical. As for the experimental part: Biological Testing cAMP HTRF® Assay to Determine the Activity of hPDE4B1
The inhibiting effect of the compounds on the enzyme activity of human PDE4B1 was measured by the quantification of 5′-adenosine monophosphate (5′-AMP), which is formed from 3′,5′-cyclic adenosine monophosphate (cAMP). Human recombinant enzyme, expressed in Sf9 cells, and the HTRF (homogeneous time-resolved fluorescence) detection method were used in the assay.
The test compound or water (control) was mixed with the human recombinant PDE4B1 enzyme (4.8 U) in a buffer consisting of 44.4 mM tris-HCl, 5.28 mM MgCl2, 2.64 mM DTT and 0.044% Tween 20 (pH 7.8). After adding the cAMP enzyme substrate (final concentration 40 nM), the mixture was incubated for 30 minutes at room temperature. Then a fluorescence acceptor (Dye2 marked with cAMP), a fluorescence donor (anti-cAMP antibody marked with a europium cryptate) and the non-specific phosphodiesterase inhibitor IBMX (3-isobutyl-1-methylxanthine; final concentration 1 mM) were added. After 60 minutes the fluorescence transfer, which correlates with the amount of remaining cAMP, was measured with a microplate reader (Rubystar, BMG) at λex=337 nm, λem=620 nm and λem=665 nm. The enzyme activity was calculated from the quotient formed from the measured signal at 665 nm and that at 620 nm. The result was expressed as the percentage inhibition of enzyme activity of the control (without PDE4 inhibitor). The enzyme was omitted for measurement of the basal control. IC50 values (IC50=concentration causing a half-maximal inhibition of control specific activity) were derived from dose response measurements with eight different concentrations (n=2; N=1-3).
Literature: N. Saldou et al., Comparison of recombinant human PDE4 isoforms: interaction with substrate and inhibitors, Cell. Signal. Vol. 10, No. 6, 427-440, 1998
Consider `Cc1ccnc(-c2cnc(-n3cc([S+](C)[O-])c4ccc(C(=O)N5CCOCC5)cc43)nc2)c1` (racemic) [Example 142, (1-(5-(4-methylpyridin-2-yl)pyrimidin-2-yl)-3-(methylsulfinyl)-1H-indol-6-yl)(morpholino)methanone], for which the inhibition at 1 µM amounted to 110%.

On to `Cc1cccc(-c2cnc(-n3cc([S+](C)[O-])c4ccc(C(=O)N5CCOCC5)cc43)nc2)c1` (single isomer, unassigned) [Example 154, (3-(Methylsulfinyl)-1-(5-(m-tolyl)pyrimidin-2-yl)-1H-indol-6-yl)(morpholino)methanone], for which the inhibition at 1 µM was determined as 98%.

As for `COc1ccc(F)c(-c2cnc(-n3cc([S+](C)[O-])c4ccc(C(=O)N5CCOCC5)cc43)nc2)c1` (single isomer, unassigned) [Example 160, (1-(5-(2-Fluoro-5-methoxyphenyl)pyrimidin-2-yl)-3-(methylsulfinyl)-1H-indol-6-yl)(morpholino)methanone], the inhibition at 1 µM amounted to 107%.

In the case of `C[S+]([O-])c1cn(-c2ncc(-c3ccccc3)cn2)c2cc(C(=O)N3CCOCC3)ccc12` (single isomer, unassigned) [Example 163, (3-(Methylsulfinyl)-1-(5-phenylpyrimidin-2-yl)-1H-indol-6-yl)(morpholino)methanone], the inhibition at 1 µM amounted to 104%.

Consider `C[S+]([O-])c1cn(-c2ncc(-c3ccccc3F)cn2)c2cc(C(=O)N3CCOCC3)ccc12` (single isomer, unassigned) [Example 165, (1-(5-(2-Fluorophenyl)pyrimidin-2-yl)-3-(methylsulfinyl)-1H-indol-6-yl)(morpholino)methanone], for which the inhibition at 1 µM came to 105%.

For `COc1ccc(F)c(-c2cnc(-n3cc([S+](C)[O-])c4ccc(C(=O)N5CCNC(=O)C5)cc43)nc2)c1` (single isomer, unassigned) [Example 213, 4-(1-(5-(2-Fluoro-5-methoxyphenyl)pyrimidin-2-yl)-3-(methylsulfinyl)-1H-indole-6-carbonyl)piperazin-2-one], the inhibition at 1 µM is 106%.

In the case of `Cc1cccc(-c2cnc(-n3cc([S+](C)[O-])c4ccc(C(=O)N5CCNC(=O)C5)cc43)nc2)c1` (single isomer, unassigned) [Example 215, 4-(3-(Methylsulfinyl)-1-(5-(m-tolyl)pyrimidin-2-yl)-1H-indole-6-carbonyl)piperazin-2-one], the inhibition at 1 µM worked out at 110%.

With `COc1cccc(-c2cnc(-n3cc([S+](C)[O-])c4ccc(C(=O)N5CCNC(=O)C5)cc43)nc2)c1` (single isomer, unassigned) [Example 217, 4-(1-(5-(3-Methoxyphenyl)pyrimidin-2-yl)-3-(methylsulfinyl)-1H-indole-6-carbonyl)piperazin-2-one], the inhibition at 1 µM was 109%.

Turning to `CC(O)c1cn(-c2ncc(-c3ccccc3)cn2)c2cc(C(=O)N3CCOCC3)ccc12` (single isomer, unassigned) [Example 254, (3-(1-Hydroxyethyl)-1-(5-phenylpyrimidin-2-yl)-1H-indol-6-yl)(morpholino)methanone], the inhibition at 1 µM was determined as 95%.

Consider `CC(O)c1cn(-c2ncc(-c3ccccc3)cn2)c2cc(C(=O)N3CCOCC3)ccc12` (single isomer, unassigned) [Example 255, (3-(1-Hydroxyethyl)-1-(5-phenylpyrimidin-2-yl)-1H-indol-6-yl)(morpholino)methanone], for which the Inhibition in % came to 95%.

For the molecule `CC1CC(C)CN(C(=O)c2ccc3c([S+](C)[O-])cn(-c4ncc(-c5ccccc5F)cn4)c3c2)C1` (single isomer, unassigned) [Example 372, (3,5-Dimethylpiperidin-1-yl)(1-(5-(2-fluorophenyl)pyrimidin-2-yl)-3-(methylsulfinyl)-1H-indol-6-yl)methanone], the inhibition at 1 µM came out at 40%.

The same experiment, now with this note: inhibition of PDE4B at a test concentration of 1 μM, 1 µM.
As for `Cc1cccc(-c2cnc(-n3cc([S+](C)[O-])c4ccc(C(=O)N5CCOCC5)cc43)nc2)c1` (single isomer, unassigned) [Example 155, (3-(Methylsulfinyl)-1-(5-(m-tolyl)pyrimidin-2-yl)-1H-indol-6-yl)(morpholino)methanone], the Inhibition in % is reported as 97%.

For `COc1cccc(-c2cnc(-n3cc([S+](C)[O-])c4ccc(C(=O)N5CCOCC5)cc43)nc2)c1` (single isomer, unassigned) [Example 157, (1-(5-(3-Methoxyphenyl)pyrimidin-2-yl)-3-(methylsulfinyl)-1H-indol-6-yl)(morpholino)methanone], the Inhibition in % is 81%.

Consider `COc1cccc(-c2cnc(-n3cc([S+](C)[O-])c4ccc(C(=O)N5CCOCC5)cc43)nc2)c1` (single isomer, unassigned) [Example 158, (1-(5-(3-Methoxyphenyl)pyrimidin-2-yl)-3-(methylsulfinyl)-1H-indol-6-yl)(morpholino)methanone], for which the Inhibition in % turned out to be 104%.

Regarding `COc1ccc(F)c(-c2cnc(-n3cc([S+](C)[O-])c4ccc(C(=O)N5CCOCC5)cc43)nc2)c1` (single isomer, unassigned) [Example 161, (1-(5-(2-Fluoro-5-methoxyphenyl)pyrimidin-2-yl)-3-(methylsulfinyl)-1H-indol-6-yl)(morpholino)methanone], the Inhibition in % is reported as 109%.

For `C[S+]([O-])c1cn(-c2ncc(-c3ccccc3)cn2)c2cc(C(=O)N3CCOCC3)ccc12` (single isomer, unassigned) [Example 164, (3-(Methylsulfinyl)-1-(5-phenylpyrimidin-2-yl)-1H-indol-6-yl)(morpholino)methanone], the Inhibition in % is reported as 92%.

Take `C[S+]([O-])c1cn(-c2ncc(-c3ccccc3F)cn2)c2cc(C(=O)N3CCOCC3)ccc12` (single isomer, unassigned) [Example 166, (1-(5-(2-Fluorophenyl)pyrimidin-2-yl)-3-(methylsulfinyl)-1H-indol-6-yl)(morpholino)methanone]: the Inhibition in % is on record as 93%.

As for `COc1ccc(F)c(-c2cnc(-n3cc([S+](C)[O-])c4ccc(C(=O)N5CCNC(=O)C5)cc43)nc2)c1` (single isomer, unassigned) [Example 214, 4-(1-(5-(2-Fluoro-5-methoxyphenyl)pyrimidin-2-yl)-3-(methylsulfinyl)-1H-indole-6-carbonyl)piperazin-2-one], the Inhibition in % was determined as 92%.

With `Cc1cccc(-c2cnc(-n3cc([S+](C)[O-])c4ccc(C(=O)N5CCNC(=O)C5)cc43)nc2)c1` (single isomer, unassigned) [Example 216, 4-(3-(Methylsulfinyl)-1-(5-(m-tolyl)pyrimidin-2-yl)-1H-indole-6-carbonyl)piperazin-2-one], the Inhibition in % was 94%.

As for `COc1cccc(-c2cnc(-n3cc([S+](C)[O-])c4ccc(C(=O)N5CCNC(=O)C5)cc43)nc2)c1` (single isomer, unassigned) [Example 218, 4-(1-(5-(3-Methoxyphenyl)pyrimidin-2-yl)-3-(methylsulfinyl)-1H-indole-6-carbonyl)piperazin-2-one], the Inhibition in % turned out to be 98%.

As to `CC(O)c1cn(-c2ncc(-c3ccccc3F)cn2)c2cc(C(=O)N3CCOCC3)ccc12` (single isomer, unassigned) [Example 252, (1-(5-(2-Fluorophenyl)pyrimidin-2-yl)-3-(1-hydroxyethyl)-1H-indol-6-yl)(morpholino)methanone], the Inhibition in % is recorded as 97%.

Regarding `CC(O)c1cn(-c2ncc(-c3ccccc3F)cn2)c2cc(C(=O)N3CCOCC3)ccc12` (single isomer, unassigned) [Example 253, (1-(5-(2-Fluorophenyl)pyrimidin-2-yl)-3-(1-hydroxyethyl)-1H-indol-6-yl)(morpholino)methanone], the Inhibition in % came out at 120%.

In the case of `CC1CC(C)CN(C(=O)c2ccc3c([S+](C)[O-])cn(-c4ncc(-c5ccccc5F)cn4)c3c2)C1` (single isomer, unassigned) [Example 373, (3,5-Dimethylpiperidin-1-yl)(1-(5-(2-fluorophenyl)pyrimidin-2-yl)-3-(methylsulfinyl)-1H-indol-6-yl)methanone], the Inhibition in % amounted to 36%.

As for `CC1CN(C(=O)c2ccc3c([S+](C)[O-])cn(-c4ncc(-c5ccccc5F)cn4)c3c2)CC(C)O1` (single isomer, unassigned) [Example 377, (2,6-Dimethylmorpholino)(1-(5-(2-fluorophenyl)pyrimidin-2-yl)-3-(methylsulfinyl)-1H-indol-6-yl)methanone], the Inhibition in % amounted to 70%.

Turning to `CC1CN(C(=O)c2ccc3c([S+](C)[O-])cn(-c4ncc(-c5ccccc5F)cn4)c3c2)CC(C)O1` (single isomer, unassigned) [Example 378, (2,6-Dimethylmorpholino)(1-(5-(2-fluorophenyl)pyrimidin-2-yl)-3-(methylsulfinyl)-1H-indol-6-yl)methanone], the Inhibition in % came out at 31%.
